From PubChem BioAssay AID1918938 (Molecular Pharmacology Branch, DTP, NCI, 2023)
pIC50: −log10 of the molar value.

Test system: 556581-035-R-J1-PDC complex spheroid viability
Test: Anticancer human tumor 556581-035-R-J1-PDC patient-derived ovarian carcinoma cell line growth inhibition
Conditions: for pIC50: curve of first compound; for viability, T/C: stronger effect = lower value
Summary of the method: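 Drug combinations with the LSD1 inhibitor iadademstat tested on tumor cells co-cultured as spheroids with endothelial cells and mesenchymal stem cells. Concentrations descended in half-log increments from clinical Cmax or 10 microM.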

[1] = second compound 0.1 µM, first compound 0.0316 µM
[2] = second compound 0.1 µM, first compound 0.1 µM
[3] = second compound 0.1 µM, first compound 0.316 µM
[4] = second compound 0.1 µM, first compound 1 µM
[5] = second compound 0.1 µM, first compound 3.16 µM
[6] = second compound 0.1 µM, first compound 10 µM
[7] = second compound 0.316 µM, first compound 0.0316 µM
[8] = second compound 0.316 µM, first compound 0.1 µM
[9] = second compound 0.316 µM, first compound 0.316 µM
[10] = second compound 0.316 µM, first compound 1 µM
[11] = second compound 0.316 µM, first compound 3.16 µM
[12] = second compound 0.316 µM, first compound 10 µM
[13] = second compound 1 µM, first compound 0.0316 µM
[14] = second compound 1 µM, first compound 0.1 µM
[15] = second compound 1 µM, first compound 0.316 µM
[16] = second compound 1 µM, first compound 1 µM
[17] = second compound 1 µM, first compound 3.16 µM
[18] = second compound 1 µM, first compound 10 µM
[19] = second compound 3.16 µM, first compound 0.0316 µM
[20] = second compound 3.16 µM, first compound 0.1 µM
[21] = second compound 3.16 µM, first compound 0.316 µM
[22] = second compound 3.16 µM, first compound 1 µM
[23] = second compound 3.16 µM, first compound 3.16 µM
[24] = second compound 3.16 µM, first compound 10 µM
[25] = second compound 10 µM, first compound 0.0316 µM
[26] = second compound 10 µM, first compound 0.1 µM
[27] = second compound 10 µM, first compound 0.316 µM
[28] = second compound 10 µM, first compound 1 µM
[29] = second compound 10 µM, first compound 3.16 µM
[30] = second compound 10 µM, first compound 10 µM
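Note: spheroids exposed to agents for seven days.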
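Throughout, for viability, T/C: 100% = DMSO vehicle control wells.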

NS(=O)(=O)OCC1CC(n2ccc3c(NC4CCc5ccccc54)ncnc32)CC1O (stereo not given) + NC1CC1c1ccc(-c2cccc(O)c2)cc1
pIC50 (second compound 0.1 µM): 6.49
pIC50 (second compound 0.316 µM): 6.55
pIC50 (second compound 1 µM): 6.48
pIC50 (second compound 3.16 µM): 6.59
pIC50 (second compound 10 µM): 6.87
viability, T/C (second compound 0.1 µM, first compound 0.00949 µM): 104%
viability, T/C (second compound 0.1 µM, first compound 0.03 µM): 81.6%
viability, T/C (second compound 0.1 µM, first compound 0.0949 µM): 66.4%
viability, T/C (second compound 0.1 µM, first compound 0.3 µM): 53.8%
viability, T/C (second compound 0.1 µM, first compound 0.949 µM): 35.4%
viability, T/C (second compound 0.1 µM, first compound 3 µM): 15.2%
viability, T/C (second compound 0.316 µM, first compound 0.00949 µM): 96.3%
viability, T/C (second compound 0.316 µM, first compound 0.03 µM): 81%
viability, T/C (second compound 0.316 µM, first compound 0.0949 µM): 66.1%
viability, T/C (second compound 0.316 µM, first compound 0.3 µM): 53.6%
viability, T/C (second compound 0.316 µM, first compound 0.949 µM): 27%
viability, T/C (second compound 0.316 µM, first compound 3 µM): 18.5%
viability, T/C (second compound 1 µM, first compound 0.00949 µM): 92.5%
viability, T/C (second compound 1 µM, first compound 0.03 µM): 81.4%
viability, T/C (second compound 1 µM, first compound 0.0949 µM): 77.5%
viability, T/C (second compound 1 µM, first compound 0.3 µM): 51.7%
viability, T/C (second compound 1 µM, first compound 0.949 µM): 29.5%
viability, T/C (second compound 1 µM, first compound 3 µM): 20.7%
viability, T/C (second compound 3.16 µM, first compound 0.00949 µM): 98.9%
viability, T/C (second compound 3.16 µM, first compound 0.03 µM): 75.7%
viability, T/C (second compound 3.16 µM, first compound 0.0949 µM): 68.5%
viability, T/C (second compound 3.16 µM, first compound 0.3 µM): 45.9%
viability, T/C (second compound 3.16 µM, first compound 0.949 µM): 32.6%
viability, T/C (second compound 3.16 µM, first compound 3 µM): 17.4%
viability, T/C (second compound 10 µM, first compound 0.00949 µM): 87.8%
viability, T/C (second compound 10 µM, first compound 0.03 µM): 74.4%
viability, T/C (second compound 10 µM, first compound 0.0949 µM): 56.4%
viability, T/C (second compound 10 µM, first compound 0.3 µM): 35.2%
viability, T/C (second compound 10 µM, first compound 0.949 µM): 20.3%
viability, T/C (second compound 10 µM, first compound 3 µM): 8.52%

CC1COCCN1c1cc(C2(S(C)(=N)=O)CC2)nc(-c2ccnc3[nH]ccc23)n1 (stereo not given) + NC1CCC(NC2CC2c2ccccc2)CC1
pIC50 (second compound 0.1 µM): < 5.00
pIC50 (second compound 0.316 µM): < 5.00
pIC50 (second compound 1 µM): < 5.00
pIC50 (second compound 3.16 µM): < 5.00
pIC50 (second compound 10 µM): 5.20
viability, T/C [1]: 96.9%
viability, T/C [2]: 90.1%
viability, T/C [3]: 81.8%
viability, T/C [4]: 77.5%
viability, T/C [5]: 71.2%
viability, T/C [6]: 60.3%
viability, T/C [7]: 87.8%
viability, T/C [8]: 90.2%
viability, T/C [9]: 78.7%
viability, T/C [10]: 70%
viability, T/C [11]: 55.6%
viability, T/C [12]: 53.9%
viability, T/C [13]: 80%
viability, T/C [14]: 88.5%
viability, T/C [15]: 73.4%
viability, T/C [16]: 65.3%
viability, T/C [17]: 58.1%
viability, T/C [18]: 53.8%
viability, T/C [19]: 93.5%
viability, T/C [20]: 77.8%
viability, T/C [21]: 79.4%
viability, T/C [22]: 67.2%
viability, T/C [23]: 55.8%
viability, T/C [24]: 60.5%
viability, T/C [25]: 67.5%
viability, T/C [26]: 73.5%
viability, T/C [27]: 69%
viability, T/C [28]: 66.1%
viability, T/C [29]: 48%
viability, T/C [30]: 49.3%

O=C(c1cc(Cc2n[nH]c(=O)c3ccccc23)ccc1F)N1CCN(C(=O)C2CC2)CC1 + NC1CC1c1ccc(-c2cccc(O)c2)cc1
pIC50 (second compound 0.1 µM): < 5.00
pIC50 (second compound 0.316 µM): < 5.00
pIC50 (second compound 1 µM): < 5.00
pIC50 (second compound 3.16 µM): < 5.00
pIC50 (second compound 10 µM): 5.03
viability, T/C [1]: 86.1%
viability, T/C [2]: 86.2%
viability, T/C [3]: 93.4%
viability, T/C [4]: 76.6%
viability, T/C [5]: 77.2%
viability, T/C [6]: 63.4%
viability, T/C [7]: 92.3%
viability, T/C [8]: 83.2%
viability, T/C [9]: 74.8%
viability, T/C [10]: 90.7%
viability, T/C [11]: 72.2%
viability, T/C [12]: 67.5%
viability, T/C [13]: 86.8%
viability, T/C [14]: 83.5%
viability, T/C [15]: 79.3%
viability, T/C [16]: 69.9%
viability, T/C [17]: 61.5%
viability, T/C [18]: 58.8%
viability, T/C [19]: 84.4%
viability, T/C [20]: 80.2%
viability, T/C [21]: 84.9%
viability, T/C [22]: 79.5%
viability, T/C [23]: 61%
viability, T/C [24]: 57.4%
viability, T/C [25]: 79.1%
viability, T/C [26]: 76%
viability, T/C [27]: 79.2%
viability, T/C [28]: 70.6%
viability, T/C [29]: 61.6%
viability, T/C [30]: 49.4%

CC1COCCN1c1cc(-c2ccnn2C)c2ccnc(-c3ccn[nH]3)c2n1 (stereo not given) + NC1CC1c1ccc(-c2cccc(O)c2)cc1
pIC50 (second compound 0.1 µM): 8.28
pIC50 (second compound 0.316 µM): 8.35
pIC50 (second compound 1 µM): 8.48
pIC50 (second compound 3.16 µM): 8.27
pIC50 (second compound 10 µM): 8.05
viability, T/C (second compound 0.1 µM, first compound 0.00316 µM): 54.8%
viability, T/C (second compound 0.1 µM, first compound 0.01 µM): 44%
viability, T/C [1]: 33.5%
viability, T/C [2]: 25.4%
viability, T/C [3]: 21.7%
viability, T/C [4]: 10.2%
viability, T/C (second compound 0.316 µM, first compound 0.00316 µM): 51.2%
viability, T/C (second compound 0.316 µM, first compound 0.01 µM): 47.9%
viability, T/C [7]: 33.4%
viability, T/C [8]: 23.8%
viability, T/C [9]: 23%
viability, T/C [10]: 10.6%
viability, T/C (second compound 1 µM, first compound 0.00316 µM): 49.5%
viability, T/C (second compound 1 µM, first compound 0.01 µM): 47.1%
viability, T/C [13]: 34.3%
viability, T/C [14]: 26.4%
viability, T/C [15]: 26.1%
viability, T/C [16]: 9.41%
viability, T/C (second compound 3.16 µM, first compound 0.00316 µM): 54.6%
viability, T/C (second compound 3.16 µM, first compound 0.01 µM): 44.5%
viability, T/C [19]: 38.5%
viability, T/C [20]: 29.2%
viability, T/C [21]: 26.9%
viability, T/C [22]: 11%
viability, T/C (second compound 10 µM, first compound 0.00316 µM): 55.3%
viability, T/C (second compound 10 µM, first compound 0.01 µM): 49.9%
viability, T/C [25]: 36.4%
viability, T/C [26]: 29.7%
viability, T/C [27]: 26%
viability, T/C [28]: 25.6%
